Assay results published in PubChem BioAssay AID588363 (Broad Institute, 2011).
Activity calls are given as the source filed them.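 The calls were made as follows: active = compounds lowering polarization with half-effect concentration at most ten times their top valid dose; inconclusive = flat fit with 30 to 70 percent drop, or poor fit; inactive = the rest.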

Biological target: KSHV LANA C-terminal domain (residues 932-1162), DNA binding
Experiment: inhibitors of C-LANA binding to LBS DNA, dose response, biochemical, fluorescence polarization, MBP fusion, dry powder (AID 588363)
Conditions: for activity change, negative = inhibition: at 35 µM (top of the series)

AC50 [µM]	activity change, negative = inhibition	SMILES
5.21	–	O=c1c(O)cccc2cc(O)c(O)c(O)c12
6.54	–	CSc1ccc(/C=N/Nc2cccc(C(=O)O)c2)cc1
–	inactive	CN(C)S(=O)(=O)c1cc(C(=O)NC2CCSc3ccccc32)ccc1Cl (configuration not stated)
31.2	–	CC1=NN(c2cccc(C(=O)O)c2)C(=O)/C1=C\C=C\c1ccco1
6.05	–	O=C(O)c1cc(N2N=C(C(F)(F)F)/C(=C/C=C/c3ccco3)C2=O)ccc1Cl
16.1	–	COC(=O)c1ccccc1NC(=O)CCS(=O)(=O)c1ccc(Br)cc1
23.1	–	Nc1c(C(=O)Nc2ccccc2F)sc2nc(Cc3ccccc3)cc(C(F)(F)F)c12
–	inactive	Clc1ccc(-c2nnc3sc(-c4ccc(Br)o4)nn23)cc1
16.8	–	CCC(=O)Oc1ccc2c(c1)O/C(=C\c1ccco1)C2=O

The next lines start with the compound.

SMILES	AC50 [µM]	activity change, negative = inhibition
O=C(O)CCNc1ccc(NCCC(=O)O)c2c1C(=O)c1ccccc1C2=O	24.4	–
O=C(O)C1Nc2ccc(Br)cc2C2C=CCC12 (configuration not stated)	3.33	–
O=C1CCCC(O)=C1N=Nc1ccc(C(=O)O)cc1	20.6	–
O=C(O)C1Nc2c(O)cc(Cl)c([N+](=O)[O-])c2C2C=CCC12 (configuration not stated)	13.2	–
CC1(C)[C@@H](O[C@H]2O[C@H](C(=O)O)[C@@H](O)[C@H](O)[C@H]2O[C@@H]2O[C@H](C(=O)O)[C@@H](O)[C@H](O)[C@H]2O)CC[C@]2(C)[C@H]3C(=O)C=C4[C@@H]5C[C@@](C)(C(=O)O)CC[C@]5(C)CC[C@@]4(C)[C@]3(C)CC[C@@H]12	–	inactive
CC(=O)c1ccc2c(c1)C1C=CCC1C(C(=O)O)N2 (configuration not stated)	4.46	–
O=C1/C(=C/c2ccco2)Oc2c1ccc(O)c2CN1CCCCC1	8.54	–
Nc1c(/C=C2\C=CC(=O)C(O)=C2)c(=O)nc2sc(CC(=O)N3CCCCC3)nn12	–	inactive
